According to ChEMBL document CHEMBL6153020, “Identification of Isoliensinine as a Ferroptosis Suppressor with Iron-Chelating Activity” (J Nat Prod, 2025):
Calls of active or inactive are those of the source. No cut-off for these calls is given here.

How the values were obtained:
[1] = test system: HT-1080; test: Anti-ferroptosis activity against RSL3-induced ferroptosis in human HT-1080 cells assessed as increase in cell viability at 5 uM incubated for 24 hrs by cell counting kit 8 method; type: functional, cell-based
[2] = test system: HT-1080; test: Anti-ferroptosis activity against FINO2-induced ferroptosis in human HT-1080 cells assessed as increase in cell viability at 1 to 50 uM incubated for 24 hrs by cell counting kit 8 method; type: functional, cell-based; settings: dose 1-50 µM
[3] = test system: HT-1080; test: Anti-ferroptosis activity against IKE-induced ferroptosis in human HT-1080 cells assessed as effect on GSH/GSSG ratio at 5 uM; type: functional, cell-based
[4] = test system: HT-1080; test: Anti-ferroptosis activity against RSL3-induced ferroptosis in human HT-1080 cells assessed as upregulation of PTGS2 mRNA expression by qPCR analysis; type: functional, cell-based
[5] = test system: HT-1080; test: Anti-ferroptosis activity against RSL3-induced ferroptosis in human HT-1080 cells assessed as protection against cell death at 10 uM incubated for 24 hrs by SYTOX Green staining based light microscopy analysis; type: functional
[6] = test system: HT-1080; test: Anti-ferroptosis activity against IKE-induced ferroptosis in human HT-1080 cells assessed as inhibition of lipid peroxidation level at 5 uM by BODIPY 581/591 C11 dye based flow cytometry analysis; type: functional, cell-based
[7] = test system: HT-1080; test: Anti-ferroptosis activity against FeCl3/8HQ-induced ferroptosis in human HT-1080 cells assessed as increase in cell viability at 1 to 50 uM incubated for 24 hrs by cell counting kit 8 method; type: functional, cell-based; settings: dose 1-50 µM
[8] = test system: HT-1080; test: Anti-ferroptosis activity against IKE-induced ferroptosis in human HT-1080 cells assessed as effect on GSH level at 5 uM; type: functional, cell-based
[9] = test system: HT-1080; test: Anti-ferroptosis activity against FINO2-induced ferroptosis in human HT-1080 cells assessed as decrease in cell death at 5 uM incubated for 24 hrs by SYTOX Green staining based light microscopy analysis; type: functional
[10] = test system: HT-1080; test: Anti-ferroptosis activity against IKE-induced ferroptosis in human HT-1080 cells assessed as increase in cell viability at 1 to 50 uM incubated for 24 hrs by cell counting kit 8 method; type: functional, cell-based; settings: dose 1-50 µM
[11] = test system: HT-1080; test: Anti-ferroptosis activity against RSL3-induced ferroptosis in human HT-1080 cells assessed as reduction in GPX4 level at 5 uM by Western blot analysis; type: functional, cell-based
[12] = test system: HT-1080; test: Anti-ferroptosis activity against RSL3-induced ferroptosis in human HT-1080 cells assessed as increase in cell viability at 10 uM incubated for 24 hrs by CCK-8 assay; type: functional, cell-based
[13] = test system: HT-1080; test: Anti-ferroptosis activity against RSL3-induced ferroptosis in human HT-1080 cells assessed as reduction in ROS level by DCFH-DA dye based analysis; type: functional, cell-based
[14] = Antioxidant activity assessed as ABTS radical scavenging activity at 5 uM by ABTS method; type: functional
[15] = test system: HT-1080; test: Anti-ferroptosis activity against RSL3-induced ferroptosis in human HT-1080 cells assessed as reduction in MDA level; type: functional, cell-based
[16] = test system: HT-1080; test: Anti-ferroptosis activity against RSL3-induced ferroptosis in human HT-1080 cells assessed as restoration of lipid peroxidation level by BODIPY 581/591 C11 dye based flow cytometry analysis; type: functional, cell-based
[17] = test system: HT-1080; test: Anti-ferroptosis activity against RSL3-induced ferroptosis in human HT-1080 cells assessed as increase in cell viability at 10 uM incubated overnight in the presence of ML385 by cell counting kit 8 method; type: functional, cell-based
[18] = test system: HT-1080; test: Anti-ferroptosis activity against IKE-induced ferroptosis in human HT-1080 cells assessed as increase in cell viability at 10 uM incubated for 24 hrs by SYTOX Green staining based light microscopy analysis; type: functional
[19] = test system: HT-1080; test: Anti-ferroptosis activity against RSL3-induced ferroptosis in human HT-1080 cells assessed as increase in cell viability at 50 uM incubated for 24 hrs by cell counting kit 8 method; type: functional, cell-based
[20] = test system: HT-1080; test: Anti-ferroptosis activity against FINO2-induced ferroptosis in human HT-1080 cells assessed as increase in cell viability at 20 uM incubated overnight by cell counting kit 8 method; type: functional, cell-based
[21] = test system: HT-1080; test: Anti-ferroptosis activity against FINO2-induced ferroptosis in human HT-1080 cells assessed as reduction in Fe2+ oxidation level at 5 uM by colorimetric method; type: functional, cell-based
[22] = test system: HT-1080; test: Anti-ferroptosis activity against FINO2-induced ferroptosis in human HT-1080 cells assessed as reduction in MDA level at 5 uM; type: functional, cell-based
[23] = test system: HT-1080; test: Anti-ferroptosis activity against FeCl3/8HQ-induced ferroptosis in human HT-1080 cells assessed as increase in cell viability at 5 uM incubated for 24 hrs by cell counting kit 8 method; type: functional, cell-based
[24] = test system: HT-1080; test: Anti-ferroptosis activity against MnCl2-induced ferroptosis in human HT-1080 cells assessed as increase in cell viability at 5 uM incubated for 24 hrs by cell counting kit 8 method; type: functional, cell-based
[25] = test system: HT-1080; test: Anti-ferroptosis activity against ZnCl2-induced ferroptosis in human HT-1080 cells assessed as increase in cell viability at 5 uM incubated for 24 hrs by cell counting kit 8 method; type: functional, cell-based
[26] = Toxicity in C57BL/6 mouse assessed as change in AST level in serum at 10 mg/kg, ip pretreated with iron sulfate for 8 hrs followed by compound administered for 30 min by automatic biochemical analyzer; type: organism-based; settings: in vivo, 30 h
[27] = test system: Mus musculus; test: Anti-ferroptotic activity against acute iron overload in male C57BL/6 mouse model assessed as reduction in […] mRNA expression level in liver at 10 mg/kg, ip pretreated with iron sulfate for 8 hrs followed by compound administered for 30 min by qPCR analysis; type: functional, organism-based
[28] = test system: HT-1080; test: Anti-ferroptosis activity against FeCl3/8HQ-induced ferroptosis in human HT-1080 cells assessed as reduction in MDA level at 5 uM; type: functional, cell-based
[29] = test system: Mus musculus; test: Protection against acute iron overload in male C57BL/6 mouse model assessed as reduction in hepatic FTL level at 10 mg/kg, ip pretreated with iron sulfate for 8 hrs followed by compound administered for 30 min by Western blot analysis; type: functional, organism-based
[30] = test system: Mus musculus; test: Anti-ferroptotic activity against acute iron overload in male C57BL/6 mouse model assessed as reduction in MDA level in liver at 10 mg/kg, ip pretreated with iron sulfate for 8 hrs followed by compound administered for 30 min; type: functional, organism-based
[31] = test system: Mus musculus; test: Protection against acute iron overload in male C57BL/6 mouse model assessed as reduction in spleen iron content at 10 mg/kg, ip pretreated with iron sulfate for 8 hrs followed by compound administered for 30 min by Perls Prussian blue staining; type: functional, organism-based
[32] = test system: HT-1080; test: Anti-ferroptosis activity against FeCl3/8HQ-induced ferroptosis in human HT-1080 cells assessed as reduction in total iron level at 5 uM by live-cell fluorescent imaging; type: functional, cell-based
[33] = test system: Mus musculus; test: Protection against male acute iron overload C57BL/6 mouse model assessed as reduction in hepatic iron content at 10 mg/kg, ip pretreated with iron sulfate for 8 hrs followed by compound administered for 30 min; type: functional, organism-based
[34] = test system: HT-1080; test: Anti-ferroptosis activity against FINO2-induced ferroptosis in human HT-1080 cells assessed as upregulation of PTGS2 mRNA level at 5 uM by qPCR analysis; type: functional, cell-based
[35] = test system: HT-1080; test: Anti-ferroptosis activity against FeSO4/8HQ-induced ferroptosis in human HT-1080 cells assessed as reduction in Fe2+ level at 5 uM by FerroOrange staining based live-cell fluorescent imaging; type: functional
[36] = test system: HT-1080; test: Anti-ferroptosis activity against FeSO4/8HQ-induced ferroptosis in human HT-1080 cells assessed as increase in cell viability at 1 to 10 uM incubated for 24 hrs by cell counting kit 8 method; type: functional, cell-based; settings: dose 1-10 µM
[37] = test system: Mus musculus; test: Protection against acute iron overload in male C57BL/6 mouse model assessed as reduction in liver iron content at 10 mg/kg, ip pretreated with iron sulfate for 8 hrs followed by compound administered for 30 min by Perls Prussian blue staining; type: functional, organism-based
[38] = test system: HT-1080; test: Anti-ferroptosis activity against FeSO4/8HQ-induced ferroptosis in human HT-1080 cells assessed as reduction in total iron level at 5 uM by live-cell fluorescent imaging; type: functional, cell-based
[39] = Toxicity in C57BL/6 mouse assessed as change in CK level in serum at 10 mg/kg, ip pretreated with iron sulfate for 8 hrs followed by compound administered for 30 min by automatic biochemical analyzer; type: organism-based; settings: in vivo, 30 h
[40] = test system: HT-1080; test: Anti-ferroptosis activity against FINO2-induced ferroptosis in human HT-1080 cells assessed as reduction in total iron level at 5 uM by live-cell fluorescent imaging; type: functional, cell-based
[41] = test system: HT-1080; test: Anti-ferroptosis activity against FeSO4/8HQ-induced ferroptosis in human HT-1080 cells assessed as reduction in MDA level at 5 uM; type: functional, cell-based
[42] = test system: Mus musculus; test: Protection against acute iron overload in male C57BL/6 mouse model assessed as reduction in hepatic FTH level at 10 mg/kg, ip pretreated with iron sulfate for 8 hrs followed by compound administered for 30 min by Western blot analysis; type: functional, organism-based
[43] = Toxicity in C57BL/6 mouse assessed as change in LDH level in serum at 10 mg/kg, ip pretreated with iron sulfate for 8 hrs followed by compound administered for 30 min by automatic biochemical analyzer; type: organism-based; settings: in vivo, 30 h
[44] = Toxicity in C57BL/6 mouse assessed as change in ALT level in serum at 10 mg/kg, ip pretreated with iron sulfate for 8 hrs followed by compound administered for 30 min by automatic biochemical analyzer; type: organism-based; settings: in vivo, 30 h

With `C=CC(C)(C)c1cc(/C=C/C(=O)c2ccc(O)cc2)c(OC)cc1O` the Activity [1] was “Active”, the Activity [2] was “inactive” and the Activity [3] was “Active”. The Activity [4] was “Active”, the Activity [5] was “Active” and the Activity [6] was “Active”. The Activity [7] was “inactive”, the Activity [8] was “Active” and the Activity [9] was “inactive”. For the same compound, the Activity [10] was “Active”, the Activity [11] was “inactive” and the Activity [12] was “Active; Strong Protection”. The Activity [13] was “Active”, the Activity [14] was “inactive” and the Activity [15] was “Active”. For the same compound, the Activity [16] was “Active”, the Activity [17] was “Active” and the Activity [18] was “Active”.

In the case of `C/C=C/c1ccc(OC(C)=O)c(OC)c1`, the Activity [2] is reported as “inactive”, the Activity [3] is reported as “Active” and the Activity [4] is reported as “Active”. The Activity [5] was “Active”, the Activity [6] was “Active” and the Activity [7] was “inactive”. The Activity [8] was “Active”, the Activity [9] was “inactive” and the Activity [10] was “Active”. For the same compound, the Activity [11] was “inactive”, the Activity [19] was “Active” and the Activity [12] was “Active; Strong Protection”. The Activity [13] was “Active”, the Activity [14] was “inactive” and the Activity [15] was “Active”. The Activity [16] was “Active”, the Activity [17] was “Active” and the Activity [18] was “Active”.

With `COc1ccc(C[C@@H]2c3cc(Oc4cc(C[C@H]5c6cc(OC)c(OC)cc6CCN5C)ccc4O)c(OC)cc3CCN2C)cc1` the Activity [20] was “inactive”.

In the case of `COc1cc2c(cc1OC)[C@@H](Cc1ccc(O)c(Oc3cc4c(cc3OC)CCN(C)[C@@H]4Cc3ccc(O)cc3)c1)N(C)CC2`, the Activity [20] is reported as “inactive”.

With `COc1ccc(C[C@@H]2c3cc(Oc4cc(C[C@@H]5c6cc(O)c(OC)cc6CCN5C)ccc4O)c(OC)cc3CCN2C)cc1` [ISOLIENSININE] the Activity [1] was “Active”, the Activity [21] was “Active” and the Activity [2] was “Active”. For the same compound, the Activity [3] was “Active”, the Activity [22] was “Active” and the Activity [4] was “Active”. The Activity [5] was “Active”, the Activity [6] was “Active” and the Activity [7] was “Active”. The Activity [23] was “inactive”, the Activity [8] was “Active” and the Activity [24] was “inactive”. The Activity [25] was “inactive”, the Activity [26] was “Non-toxic” and the Activity [27] was “Active”. For the same compound, the Activity [28] was “Active”, the Activity [9] was “Active” and the Activity [29] was “Active”. The Activity [30] was “Active”, the Activity [10] was “Active” and the Activity [31] was “Active”. For the same compound, the Activity [32] was “Active”, the Activity [33] was “Active” and the Activity [34] was “Active”. The Activity [11] was “inactive”, the Activity [35] was “Active” and the Activity [36] was “Active”. For the same compound, the Activity [37] was “Active”, the Activity [38] was “Active” and the Activity [12] was “Active; Strong Protection”. The Activity [39] was “Non-toxic”, the Activity [40] was “Active” and the Activity [13] was “Active”. For the same compound, the Activity [41] was “Active”, the Activity [42] was “Active” and the Activity [43] was “Non-toxic”. For the same compound, the Activity [44] was “Non-toxic”, the Activity [14] was “inactive” and the Activity [15] was “Active”. The Activity [16] was “Active”, the Activity [17] was “Active” and the Activity [18] was “Active”.
